Results as given in ChEMBL document CHEMBL1287690, “Mycoepoxydiene, a fungal polyketide, induces cell cycle arrest at the G2/M phase and apoptosis in HeLa cells” (Bioorg Med Chem Lett, 2010).
Active and inactive are the calls of the source. The rule behind the calls is not given here.

What was measured:
HeLa [1] = experiment: Cell cycle arrest in human HeLa cells assessed as accumulation at G2/M phase at 21 uM after 36 hrs using propidium iodide staining by flow cytometry relative to control; format: functional
KB = experiment: Cytotoxicity against human KB cells by MTT assay; format: functional, cell-based
HeLa [2] = experiment: Cell cycle arrest in human HeLa cells assessed as accumulation at sub-G1 phase at 21 uM after 36 hrs using propidium iodide staining by flow cytometry relative to control; format: functional
HeLa [3] = experiment: Induction of p38 expression in human HeLa cells at 21 uM after 8 hrs by Western blotting; format: functional, cell-based
[4] = molecular target: MAP kinase p38 (Homo sapiens) (UniProt O15264+Q15759+Q16539+P53778); experiment: Induction of p38 phosphorylation at Thr180/Tyr182 in human HeLa cells assessed at 21 uM after 30 mins by Western blotting; format: cell-based
HeLa [5] = experiment: Induction of apoptosis in human HeLa cells assessed as reduction in expression of chk1 at 14 to 21 uM by immunoblot assay; format: functional, cell-based; conditions: TDE = time-dependent effect
HeLa [6] = experiment: Induction of apoptosis in human HeLa cells assessed as increase in production of cyclin B1 at 14 to 21 uM after 12 hrs by immunoblot assay; format: functional, cell-based
U2OS = experiment: Growth inhibition in human U2OS cells after 72 hrs by MTT assay; format: functional, cell-based
HeLa [7] = experiment: Induction of apoptosis in human HeLa cells assessed as increase in cleavage fragments of p17 and p12 at 21 uM after 12 to 28 hrs by Western blotting; format: functional, cell-based
HeLa [8] = experiment: Induction of apoptosis in human HeLa cells assessed as reduction in expression of Cdc2 at 14 to 21 uM by immunoblot assay; format: functional, cell-based; conditions: TDE = time-dependent effect
HeLa [9] = experiment: Induction of apoptosis in human HeLa cells assessed as increase in caspase-3 cleavage at 21 uM after 12 to 28 hrs by Western blotting in presence of z-VAD-fmk; format: functional, cell-based
HeLa [10] = experiment: Induction of apoptosis in human HeLa cells assessed as reduction in expression of chk1 after 12 hrs by immunoblot assay; format: functional, cell-based
HeLa [11] = experiment: Induction of apoptosis in human HeLa cells assessed as reduction in expression of GADD45alpha after 12 hrs by immunoblot assay; format: functional, cell-based
HeLa [12] = experiment: Induction of apoptosis in human HeLa cells assessed as cell death in presence of 25 uM of […] z-VAD-fmk; format: functional, cell-based
HeLa [13] = experiment: Induction of apoptosis in human HeLa cells assessed as increase of dead cells after 24 hrs using propidium iodide staining by flow cytometry; format: functional, cell-based
HeLa [14] = experiment: Induction of apoptosis in human HeLa cells assessed as increase in cytochrome C in cytoplasm at 21 uM after 20 hrs by Western blotting; format: functional, cell-based
HeLa [15] = experiment: Induction of apoptosis in human HeLa cells assessed as increase of dead cells at 12 uM using propidium iodide staining by flow cytometry; format: functional, cell-based; conditions: TDE = time-dependent effect
HeLa [16] = experiment: Induction of apoptosis in human HeLa cells assessed cell death up to 20 uM after 48 hrs using propidium iodide staining by flow cytometry in presence of JNK inhibitor 2 treated 1 hr before compound challenge; format: functional, cell-based
HeLa [17] = experiment: Cell cycle arrest in human HeLa cells assessed as accumulation at G2/M phase at 14 uM after 12 hrs using propidium iodide staining by flow cytometry relative to control; format: functional
MDA-MB-435 = experiment: Growth inhibition in human MDA-MB-435 cells after 72 hrs by MTT assay; format: functional, cell-based
HeLa [18] = experiment: Induction of apoptosis in human HeLa cells assessed as morphological changes at 14 to 21 uM after 9 hrs by phase contrast microscopic analysis; format: functional, cell-based
HeLa [19] = experiment: Induction of apoptosis in human HeLa cells assessed as increase in production of p21 at 14 to 21 uM after 12 hrs by immunoblot assay; format: functional, cell-based
HeLa [20] = experiment: Induction of apoptosis in human HeLa cells assessed as reduction in expression of WEE1 after 12 hrs by immunoblot assay; format: functional, cell-based
AGS = experiment: Growth inhibition in human AGS cells after 72 hrs by MTT assay; format: functional, cell-based
DU-145 = experiment: Growth inhibition in human DU145 cells after 72 hrs by MTT assay; format: functional, cell-based
HeLa [21] = experiment: Induction of apoptosis in human HeLa cells assessed cell death up to 20 uM after 48 hrs using propidium iodide staining by flow cytometry in presence of SB-203580 treated 1 hr before compound challenge; format: functional, cell-based
HeLa [22] = experiment: Cytotoxicity against human HeLa cells after 72 hrs by MTT assay; format: functional, cell-based
HeLa [23] = experiment: Induction of apoptosis in human HeLa cells assessed as reduction in expression of Myt1 after 12 hrs by immunoblot assay; format: functional, cell-based
[24] = molecular target: c-Jun N-terminal kinase, JNK (Homo sapiens) (UniProt P45983+P53779+P45984); experiment: Induction of JNK phosphorylation at Thr183/Tyr185 in human HeLa cells at 21 uM after 30 mins by Western blotting; format: cell-based
HeLa [25] = experiment: Induction of apoptosis in human HeLa cells assessed as reduction in expression of Myt1 at 14 to 21 uM by immunoblot assay; format: functional, cell-based; conditions: TDE = time-dependent effect
HeLa [26] = experiment: Growth inhibition in human HeLa cells after 72 hrs by MTT assay; format: functional, cell-based
HeLa [27] = experiment: Induction of apoptosis in human HeLa cells assessed as increase in actin stress fiber formation across cell body after 12 hrs by phase contrast microscopic analysis; format: functional, cell-based; conditions: TDE = time-dependent effect
HeLa [28] = experiment: Cell cycle arrest in human HeLa cells assessed as accumulation at sub-G1 phase at 14 uM after 36 hrs using propidium iodide staining by flow cytometry relative to control; format: functional
HeLa [29] = experiment: Induction of JNK expression in human HeLa cells at 21 uM after 8 hrs by Western blotting; format: functional, cell-based
HeLa [30] = experiment: Induction of apoptosis in human HeLa cells assessed as increase in PARP cleavage at 21 uM after 12 to 28 hrs by Western blotting; format: functional, cell-based
HeLa [31] = experiment: Induction of apoptosis in human HeLa cells assessed as reduction in expression of Cdc2 after 12 hrs by immunoblot assay; format: functional, cell-based
HeLa [32] = experiment: Cell cycle arrest in human HeLa cells assessed as accumulation at G2/M phase at 21 uM after 12 hrs using propidium iodide staining by flow cytometry relative to control; format: functional
HeLa [33] = experiment: Induction of apoptosis in human HeLa cells assessed as reduction in expression of GADD45alpha at 14 to 21 uM by immunoblot assay; format: functional, cell-based; conditions: TDE = time-dependent effect
HeLa [34] = experiment: Induction of apoptosis in human HeLa cells assessed as disruption of tubulin cytoskeleton at 14 to 21 uM by phase contrast microscopic analysis; format: functional, cell-based
MCF7 = experiment: Growth inhibition in human MCF7 cells after 72 hrs by MTT assay; format: functional, cell-based
HeLa [35] = experiment: Induction of apoptosis in human HeLa cells assessed as reduction in expression of p34 at 14 to 21 uM by immunoblot assay; format: functional, cell-based; conditions: TDE = time-dependent effect
A549 = experiment: Growth inhibition in human A549 cells after 72 hrs by MTT assay; format: functional, cell-based
HeLa [36] = experiment: Induction of apoptosis in human HeLa cells assessed as increase in actin stress fiber formation across cell body at 14 to 21 uM by phase contrast microscopic analysis; format: functional, cell-based; conditions: TDE = time-dependent effect
HeLa [37] = experiment: Cell cycle arrest in human HeLa cells assessed as accumulation at G2/M phase at 14 uM after 36 hrs using propidium iodide staining by flow cytometry relative to control; format: functional
HeLa [38] = experiment: Induction of apoptosis in human HeLa cells assessed as reduction in expression of chk2 after 12 hrs by immunoblot assay; format: functional, cell-based
OVCAR-3 = experiment: Growth inhibition in human OVCAR-3 cells after 72 hrs by MTT assay; format: functional, cell-based
HeLa [39] = experiment: Induction of apoptosis in human HeLa cells assessed as reduction in expression of WEE1 at 14 to 21 uM by immunoblot assay; format: functional, cell-based; conditions: TDE = time-dependent effect
HeLa [40] = experiment: Induction of apoptosis in human HeLa cells assessed as increase of dead cells at 11 uM using propidium iodide staining by flow cytometry; format: functional, cell-based; conditions: TDE = time-dependent effect
MDA-MB-231 = experiment: Growth inhibition in human MDA-MB-231 cells after 72 hrs by MTT assay; format: functional, cell-based
HeLa [41] = experiment: Induction of apoptosis in human HeLa cells assessed as reduction in expression of chk2 at 14 to 21 uM by immunoblot assay; format: functional, cell-based; conditions: TDE = time-dependent effect
HeLa [42] = experiment: Induction of apoptosis in human HeLa cells assessed as reduction in expression of p34 after 12 hrs by immunoblot assay; format: functional, cell-based
HT-29 = experiment: Growth inhibition in human HT-29 cells after 72 hrs by MTT assay; format: functional, cell-based

**Q.** What does the source list for `CC(=O)O[C@H]1C=CC(=O)O[C@H]1[C@@H]1[C@H](C)[C@H]2C=CC=C[C@@H]1O2` [MYCOEPOXYDIENE]?
**A.** Activity (HeLa [1]): 31.3%; IC50 (KB): < 21.5 µM; Activity (HeLa [2]): 23.3%; Activity (HeLa [3]): inactive; Activity [4]: Active; Activity (HeLa [5]): tde; Activity (HeLa [6]): Active; growth inhibition (GI) (U2OS): Active; Activity (HeLa [7]): Active; Activity (HeLa [8]): tde; Activity (HeLa [9]): inactive; Activity (HeLa [10]): Dose-dependent effect; Activity (HeLa [11]): Dose-dependent effect; Activity (HeLa [12]): inactive; Activity (HeLa [13]): Dose-dependent effect; Activity (HeLa [14]): Active; Activity (HeLa [15]): tde; Activity (HeLa [16]): Active; Activity (HeLa [17]): 40.9%; growth inhibition (GI) (MDA-MB-435): Active; Activity (HeLa [18]): Active; Activity (HeLa [19]): Active; Activity (HeLa [20]): Dose-dependent effect; growth inhibition (GI) (AGS): Active; growth inhibition (GI) (DU-145): Active; Activity (HeLa [21]): Active; IC50 (HeLa [22]): 16.8 µM; Activity (HeLa [23]): Dose-dependent effect; Activity [24]: Active; Activity (HeLa [25]): tde; growth inhibition (GI) (HeLa [26]): Active; Activity (HeLa [27]): tde; Activity (HeLa [28]): 4.8%; Activity (HeLa [29]): inactive; Activity (HeLa [30]): Active; Activity (HeLa [31]): Dose-dependent effect; Activity (HeLa [32]): 47.5%; Activity (HeLa [33]): tde; Activity (HeLa [34]): Dose-dependent effect; growth inhibition (GI) (MCF7): Active; Activity (HeLa [35]): tde; growth inhibition (GI) (A549): Active; Activity (HeLa [36]): tde; Activity (HeLa [37]): 31.4%; Activity (HeLa [38]): Dose-dependent effect; growth inhibition (GI) (OVCAR-3): Active; Activity (HeLa [39]): tde; Activity (HeLa [40]): tde; growth inhibition (GI) (MDA-MB-231): Active; Activity (HeLa [41]): tde; Activity (HeLa [42]): Dose-dependent effect; growth inhibition (GI) (HT-29): Active
